Patent publication US12655130B2 (ASSEMBLY BIOSCIENCES, INC., priority 2020, dated 2026)

test system: HBV viral load (viral production from HepAD38 cells); test: Activity of test compounds on viral production from HepAD38 cells (viral load by qPCR of HBV core sequence); type: cell-based; settings: Hepatitis B virus, HePAD38, 120 h, viral load lowering, 5 days, qPCR of supernatant, read-out: VL HepAD38 EC50 range
How it was run: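 EC50 and CC50 come from four-parameter logistic fits: HBV core DNA in supernatant by TaqMan qPCR against DNA standards, normalised to DMSO controls, and cell viability by CellTiter-Glo. Cells were plated at 50,000/well without tetracycline (2% FBS) and exposed to compounds (highest 10 μM) for 5 days, 37 °C.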

Compound | EC50
Cn1cnc(C2CC3CC(O)(c4c(Cl)c(N)nn4C)CC3C2)c1C(=O)Nc1ccc(F)c(Cl)c1 (centres unmarked) [Example 98, 4-(5-(3-amino-4-chloro-1-methyl-1H-pyrazol-5-yl)-5-hydroxyoctahydropentalen-2-yl)-N-(3-chloro-4-fluorophenyl)-1-methyl-1H-imidazole-5-carboxamide] | < 10 nM
CC(N)c1nn(C)cc1C1(O)CC2CC(c3ncn(C)c3C(=O)Nc3ccc(F)c(Cl)c3)CC2C1 (centres unmarked) [Example 184, 4-(5-(3-(1-Aminoethyl)-1-methyl-1H-pyrazol-4-yl)-5-hydroxyoctahydropentalen-2-yl)-N-(3-chloro-4-fluorophenyl)-1-methyl-1H-imidazole-5-carboxamide] | < 10 nM
Cn1cc(C(F)(F)F)c(C2(O)CC3CC(c4ncn(C)c4C(=O)Nc4ccc(F)c(Cl)c4)CC3C2)n1 (centres unmarked) [Example 156, N-(3-Chloro-4-fluorophenyl)-4-(5-hydroxy-5-(1-methyl-4-(trifluoromethyl)-1H-pyrazol-3-yl)octahydropentalen-2-yl)-1-methyl-1H-imidazole-5-carboxamide] | < 10 nM
CC(=O)Nc1cc(C2(O)CC3CC(c4ncn(C)c4C(=O)Nc4ccc(F)c(Cl)c4)CC3C2)n(C(C)C)n1 (centres unmarked) [Example 166, 4-(5-(3-Acetamido-1-isopropyl-1H-pyrazol-5-yl)-5-hydroxyoctahydropentalen-2-yl)-N-(3-chloro-4-fluorophenyl)-1-methyl-1H-imidazole-5-carboxamide] | < 10 nM
CCn1nc(N)c(Cl)c1C1(O)CC2CC(c3ncn(C)c3C(=O)Nc3ccc(F)c(Cl)c3)CC2C1 (centres unmarked) [Example 168, 4-(5-(3-Amino-4-chloro-1-ethyl-1H-pyrazol-5-yl)-5-hydroxyoctahydropentalen-2-yl)-N-(3-chloro-4-fluorophenyl)-1-methyl-1H-imidazole-5-carboxamide] | 10 to 50 nM
Cn1cnc(C2CC3CC(O)(c4cc(C(C)(C)C)nn4C)CC3C2)c1C(=O)Nc1ccc(F)c(Cl)c1 (single isomer, unassigned) [Example 74] | < 10 nM
Cn1cnc(C2CC3CC(O)(c4c(C#N)cnn4C)CC3C2)c1C(=O)Nc1ccc(F)c(Cl)c1 (centres unmarked) [Example 125, N-(3-chloro-4-fluorophenyl)-4-(5-(4-cyano-1-methyl-1H-pyrazol-5-yl)-5-hydroxyoctahydropentalen-2-yl)-1-methyl-1H-imidazole-5-carboxamide] | < 10 nM
Cn1cnc(C2CC3CC(O)(c4cc(OCC(C)(O)CO)nn4C)CC3C2)c1C(=O)Nc1ccc(F)c(Cl)c1 (centres unmarked) [Example 218, N-(3-Chloro-4-fluorophenyl)-4-(5-(3-(2,3-dihydroxy-2-methylpropoxy)-1-methyl-1H-pyrazol-5-yl)-5-hydroxyoctahydropentalen-2-yl)-1-methyl-1H-imidazole-5-carboxamide] | < 10 nM

same assay, conditions: viral load lowering, 5 days, qPCR of supernatant, read-out: VL HepAD38 EC50 range

Compound | EC50
Cn1cnc(-c2ccc(C3CCC(c4ncn(C)c4C(=O)Nc4ccc(F)c(Cl)c4)C3)cc2)c1 (centres unmarked) [Example 15, N-(3-Chloro-4-fluorophenyl)-1-methyl-4-(3-(4-(1-methyl-1H-imidazol-4-yl)phenyl)cyclopentyl)-1H-imidazole-5-carboxamide] | < 10 nM
O=C1CC2CC(c3nc4n(c3C(=O)Nc3ccc(F)c(Cl)c3)CCCC4)CC2C1 (centres unmarked) [Example 81, N-(3-Chloro-4-fluorophenyl)-2-(5-oxooctahydropentalen-2-yl)-5,6,7,8-tetrahydroimidazo[1,2-a]pyridine-3-carboxamide] | 10 to 50 nM
CC(CO)Oc1cc(C2(O)CC3CC(c4ncn(C)c4C(=O)Nc4ccc(F)c(Cl)c4)CC3C2)n(C)n1 (centres unmarked) [Example 67, N-(3-Chloro-4-fluorophenyl)-4-(5-hydroxy-5-(3-((1-hydroxypropan-2-yl)oxy)-1-methyl-1H-pyrazol-5-yl)octahydropentalen-2-yl)-1-methyl-1H-imidazole-5-carboxamide] | < 10 nM
